Reference: patent US8557844B2, “Substrate reduction therapy” (The Chancellor, Masters and Scholars of the University of …, priority 2007, dated 2013)
“Also recorded” adds a separate entry of the source.

Legend:
rat recombinant α-2,3-ST = conditions: rat recombinant enzyme; read-out: IC(50), α-2,3-ST; cited from earlier work
rat recombinant α-2,6-ST = target: T1, rat recombinant α-2,6-ST (Rattus norvegicus, UniProt P13721); conditions: rat recombinant enzyme; read-out: IC(50), α-2,6-ST; cited from earlier work
T1 sequence (P13721 1-403): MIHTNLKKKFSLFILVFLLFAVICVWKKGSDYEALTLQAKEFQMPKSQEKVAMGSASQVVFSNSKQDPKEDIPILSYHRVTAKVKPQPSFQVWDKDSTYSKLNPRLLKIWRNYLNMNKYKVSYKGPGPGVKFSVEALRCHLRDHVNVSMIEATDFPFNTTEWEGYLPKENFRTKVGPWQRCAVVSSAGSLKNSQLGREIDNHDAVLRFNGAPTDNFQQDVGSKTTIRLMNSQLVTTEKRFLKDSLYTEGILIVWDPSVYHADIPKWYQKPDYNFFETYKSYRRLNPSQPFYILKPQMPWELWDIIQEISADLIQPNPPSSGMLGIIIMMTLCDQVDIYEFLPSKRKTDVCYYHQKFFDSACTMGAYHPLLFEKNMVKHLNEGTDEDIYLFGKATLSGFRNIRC

[1] = target: T2, human α-1,3-fucosyltransferase V (Homo sapiens, UniProt Q11128); conditions: in the presence of guanosine diphosphate (GDP); cited from earlier work
T2 sequence (Q11128 1-374): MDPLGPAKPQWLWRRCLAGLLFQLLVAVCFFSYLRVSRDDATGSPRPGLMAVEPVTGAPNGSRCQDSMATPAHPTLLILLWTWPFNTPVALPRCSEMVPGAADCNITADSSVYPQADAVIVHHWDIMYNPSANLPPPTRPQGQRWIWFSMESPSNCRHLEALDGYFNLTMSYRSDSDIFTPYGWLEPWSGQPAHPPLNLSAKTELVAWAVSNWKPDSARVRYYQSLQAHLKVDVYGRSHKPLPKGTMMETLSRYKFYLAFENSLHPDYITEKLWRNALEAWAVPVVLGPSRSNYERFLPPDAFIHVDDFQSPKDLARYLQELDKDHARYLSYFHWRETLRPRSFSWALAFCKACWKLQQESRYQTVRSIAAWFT

[2] = system: free cholesterol storage and abnormal lipid endocytosis; conditions: cited from earlier work
sialyltransferase = conditions: cited from earlier work
RAW mouse macrophages [3] = assay: Cholesterol levels (filipin) in RAW cells treated with AY9944; assay type: cell-based; conditions: for cholesterol levels (filipin): 1 mM AY9944 in LPDS medium
Procedure: (§1) RAW mouse macrophages grown in medium supplemented with LPDS for 5 days to elevate endogenous cholesterol biosynthesis were treated with […] AY9944 in medium supplemented with lipoprotein deficient serum (LPDS) for a further 5 or 10 days to induce storage of 7-DHC. […] This correlated with abnormal transport of a fluorescent GSL analogue of lactosylceramide (LacCer)—BODIPY-LacCer.
(§2) FIG. 4 consists of micrographs which together show the induction of an NPC phenotype in cholesterol null RAW cells. All RAW cells were grown in medium supplemented with LPDS for 5 days (controls) to reduce exogenously derived cholesterol prior to addition of 1 μM AY9944 to inhibit endogenous cholesterol synthesis for a further 5 days or 10 days (as indicated). Alterations in sphingolipid trafficking were measured in live cells using BODIPY-LacCer (lower panels), cholesterol levels in fixed cells were measured with filipin (upper panels). Endocytic cholesterol storage in cholesterol depleted cells was induced by growth in medium supplemented with 10% FCS for a further 24 h. For each condition n=2, images are representative of at least 10 captured fields, scale bar=5 μm.

RAW mouse macrophages [4] = assay: BODIPY-LacCer transport in RAW cells treated with AY9944; assay type: cell-based
Procedure: as §1, §2

[5] = target: T3, 3β-hydroxysterol Δ7-reductase (Mus musculus, UniProt O88455); conditions: cited from earlier work
T3 construct: RAW mouse macrophages grown in medium supplemented with LPDS for 5 days to elevate endogenous cholesterol biosynthesis; endogenous in cells; host or cells: RAW mouse macrophages
T3 sequence (O88455 1-471): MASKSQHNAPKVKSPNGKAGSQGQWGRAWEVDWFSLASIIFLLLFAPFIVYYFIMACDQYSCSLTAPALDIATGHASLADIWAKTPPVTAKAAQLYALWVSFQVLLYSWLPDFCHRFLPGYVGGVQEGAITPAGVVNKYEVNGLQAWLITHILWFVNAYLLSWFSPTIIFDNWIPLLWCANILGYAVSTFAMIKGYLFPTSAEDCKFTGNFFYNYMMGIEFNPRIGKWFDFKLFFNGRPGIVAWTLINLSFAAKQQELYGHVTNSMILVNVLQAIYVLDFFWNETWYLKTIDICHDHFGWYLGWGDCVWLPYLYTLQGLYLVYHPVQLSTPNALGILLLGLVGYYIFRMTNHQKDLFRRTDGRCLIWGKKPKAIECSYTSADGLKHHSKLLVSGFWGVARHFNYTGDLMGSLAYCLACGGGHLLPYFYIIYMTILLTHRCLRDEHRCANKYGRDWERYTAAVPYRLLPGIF

GSL levels = conditions: mice; cited from earlier work
[6] = cited from earlier work
[7] = system: NPC1 null (CT43) CHO cells; conditions: NB-DNJ treatment; cited from earlier work
[8] = system: NPC1 null (CT43) CHO cells; conditions: NB-DNJ treatment; cited from earlier work; remark: listed apart in the source
[9] = system: peripheral blood B lymphocytes; conditions: NPC patient, B cells over 6 months; cited from earlier work
[10] = interim data after 12 months of a 2-year trial; cited from earlier work
mammalian cells = conditions: liposomes of dioleoylphosphatidylethanolamine and cholesteryl hemisuccinate; cited from earlier work

Molecule: cytidin-5′-yl sialylethylphosphonate
- IC50 (rat recombinant α-2,3-ST): 47 µM
- IC50 (rat recombinant α-2,6-ST): 340 µM

Molecule: CCCO[C@H]1O[C@H](CO)[C@@H](O[C@@H]2O[C@H](CO)[C@H](O)[C@H](O)[C@H]2O)[C@H](OCCN2C(C)C(O)C(O)C(O)C2CO)[C@H]1NC(C)=O (stereo partly drawn) [propyl 2-acetamido-2-deoxy-4-O-(β-D-galactopyranosyl)-3-O-(2-(N-(β-L-homofuconojirimycinyl))ethyl)-α-D-glucopyranoside]
- inhibition of human α-1,3-fucosyltransferase V [1]: effective inhibitor

Molecule: CC(=O)[C@H]1CC[C@H]2[C@@H]3CCC4=CC(=O)CC[C@]4(C)[C@H]3CC[C@]12C [progesterone]
- free cholesterol storage and lipid endocytosis [2]: induce free cholesterol storage and abnormal lipid endocytosis
- induction of NPC1 phenotype [2]: can induce an NPC1 phenotype

Molecule: C[C@@H]1O[C@@H](O[C@H]2[C@H](O[C@H]3[C@H](O[C@H]4CC[C@@]5(C)[C@@H](CC[C@]6(C)[C@@H]5CC=C5[C@@H]7CC(C)(C)C[C@@H](O)[C@]7(C)CC[C@]56C)[C@@]4(C)CO)O[C@H](C(=O)O)[C@@H](O)[C@@H]3O)O[C@H](CO)[C@H](O)[C@@H]2O)[C@H](O)[C@H](O)[C@H]1O [Soyasaponin I]
- sialyltransferase inhibition (sialyltransferase): potent and specific sialyltransferase inhibitor

Molecule: CC(C)CCC[C@@H](C)[C@H]1CC[C@H]2[C@@H]3C(=O)C=C4C[C@@H](O)CC[C@]4(C)[C@H]3CC[C@]12C [7-ketocholesterol]
- free cholesterol storage and lipid endocytosis [2]: induce free cholesterol storage and abnormal lipid endocytosis

Molecule: Clc1ccccc1CNCC1CCC(CNCc2ccccc2Cl)CC1 (centres unmarked) [AY9944]
- cholesterol levels (filipin) (RAW mouse macrophages [3]; 5 days): slight decrease in cholesterol levels
- cholesterol levels (filipin) (RAW mouse macrophages [3]; 10 days): markedly reduced
- localisation of exogenously derived cholesterol (RAW mouse macrophages [3]; 10 day AY9944, then medium with 10% FCS): exogenously derived cholesterol became trapped in punctate LE
- BODIPY-LacCer transport (RAW mouse macrophages [4]; 5 days post AY9944, 30 min pulse, 90 min chase): transported to the Golgi
- BODIPY-LacCer transport (RAW mouse macrophages [4]; 10 days post AY9944): trapped in punctate LE/Lys
- 7-DHC level [5]: accumulation of 7-DHC

Molecule: CN(C)CCCN1c2ccccc2CCc2ccccc21 [imipramine]
- free cholesterol storage and lipid endocytosis [2]: induce free cholesterol storage and abnormal lipid endocytosis

Molecule: CCN(CC)CCO[C@H]1CC[C@@]2(C)C(=CC[C@@H]3[C@@H]2CC[C@]2(C)C(=O)CC[C@@H]32)C1 [Compound U18666A]
- free cholesterol storage and lipid endocytosis [2]: induce free cholesterol storage and abnormal lipid endocytosis
- induction of NPC1 phenotype [2]: can induce an NPC1 phenotype

Molecule: CCCCN1C[C@H](O)[C@@H](O)[C@H](O)[C@H]1CO [NB-DNJ, N-butyldeoxynojirimycin]
- decrease in GSL levels (onset) (GSL levels): measurable decrease in GSL levels within a day of treatment
- treatment time after which effect on GSL levels stabilizes (GSL levels): 10 days
- neurological side effects ([6]; adult mice): not to cause neurological side effects
- CNS penetration ([6]; mouse, in vivo): penetrate the CNS
- effects on behaviour or CNS development ([6]; mouse, in vivo): without significant effects on behaviour or CNS development
- GSL storage in NPC1 cells [7]: reduction in GSL storage in the endo/lysosomal system; also recorded: lowers GSL storage in NPC1 cells to control levels
- endocytosis in NPC1 cells [8]: corrects abnormal endocytosis
- endosomal uptake [9]: improved endosomal uptake
- lipid trafficking in peripheral blood B lymphocytes [9]: greatly improved
- pathological lipid storage [9]: reduced
- total late endosomal/lysosomal compartment [9]: almost normalised
- clinical benefit, saccadic eye movement [10]: stabilization or improvement in saccadic eye movement
- factor by which liposomes reduced the required dose (mammalian cells): 1000
